The source of these data is article PMC3693772, “Protein expression, biochemical pharmacology of signal transduction, and relation to intraocular pressure modulation by bradykinin B2 receptors in ciliary muscle” (Molecular Vision, 2013).

A word on the EC50: it is the concentration at which the effect is half-maximal.

Several values for one entry are separate records, joined by “and”; a condition that tells them apart may be missing. Identical values can stand only once. Entries after “also recorded” stand apart in the source; their conditions may differ. Like-named read-outs stand apart in the source and are kept apart here.

For one experiment, the system named is primary h-TM cells. The format is cell-based, human. As to conditions: preliminary data, values rounded-off, read-out: Agonist potency at stimulating [Ca^2+]i mobilization in primary h-TM cells (EC50).
In experiment [1] the test system is CHO-B2 cells (human cloned B2 receptor). The format is cell-based, Chinese hamster ovary cells.
The subject of experiment [2] is h-CM cells. The format is cell-based, human. The following applies: 1 h at 37 °C; enzyme immunoassay; mean ± SEM, 3 to 6 experiments; read-out: PGE2 production in h-CM cells (EC50).
The test system of experiment [3] is h-CM cells. Put plainly: PGD2 production in h-CM cells. It counts as cell-based, human. The following applies: with or without BK; limit of detection PGD2=200 pg/ml.
Experiment [4] concerns CHO-B2 cells. It counts as cell-based, Chinese hamster ovary cells, human cloned B2 receptor. The following applies: 1 h at 37 °C; enzyme immunoassay; mean ± SEM, 3 to 6 experiments; read-out: PGE2 production in CHO-B2 cells (EC50).
Experiment [5] deals with CHO-B2 cells. As to conditions: read-out: PGD2 production in CHO-B2 cells (EC50), 1 h at 37 °C, enzyme immunoassay. The procedure: Measurement of prostaglandins in human ciliary muscle and Chinese hamster ovary cells expressing B2 receptors
This involved stimulating h-CM cells and CHO-B2 cells with various concentrations of test peptides and measuring the release of various PGs in the extracellular medium. The concentration-dependent effects of these peptides on total PGs, and specifically PGE2, PGF2α, and PGD2 release, were studied. Cells were grown as a monolayer in a 24-well plate (precoated with fibronectin) to confluence and subsequently serum-starved overnight before the experiment. On the day of the experiment, just before the drug was added, the wells were aspirated completely, and 990 µl basal medium and 10 µl 100× series of concentrations of the different peptide agonists were added to achieve the desired final concentrations of each compound (e.g., 0.1 nM to 10 µM). […] At the end of the incubation period, the cellular supernatants were collected and stored at −80 °C or used immediately to determine the PG content. Cell supernatants were tested for total PG levels and sub-species of PGs (PGE2, PGF2α, and PGD2) using specific competitive enzyme immunoassays (Cayman Chemical Co., Ann Arbor, MI) as directed in the manufacturer’s recommended protocols using the supplied standards and reagents. The limits of detection for various PGs were as follows: total PGs=29 pg/ml; PGE2=15 pg/ml; PGF2α=9 pg/ml; PGD2=200 pg/ml.

Experiment [6] concerns h-CM cells. Put plainly: Nitric oxide production in h-CM cells. It counts as cell-based, human. The following applies: BK 0.1 and 1 µM; data not shown. The source says:
Measurement of nitric oxide production
In certain cell types, BK elevates intracellular levels of nitric oxide (NO), which in turn causes the generation of cGMP via the soluble guanylate cyclase in the cell cytosol. In the present studies, we determined whether the B2 receptors in h-CM cells were coupled to NO production using a specific kit (Promega Corp., Madison, WI) and according to the manufacturer’s instructions.

The subject of experiment [7] is ERK1/2 phosphorylation, h-CM cells. Description: ERK1/2 phosphorylation in h-CM cells (HTRF). It counts as cell-based, human. The following applies: 100 nM. As for the experimental part:
(§1) Measurement of extracellular signal-regulated kinase-1/2 phosphorylation and pro-matrix metalloproteinase production
In the current assay, an homogeneous-time-resolved fluorescence (HTRF) assay (CisBio; Bedford, MA) was used. The HTRF assay is based on a sandwich immunoassay using an antiphospho-ERK1/2 antibody labeled with D2 and an anti-ERK1/2 antibody labeled with Eu^3+-Cryptate. In brief, h-CM cells (passage 7) were cultured in 96-well half-area white plates and incubated overnight, at 37 °C in CO2 atmosphere. […] Lysis buffer provided in the HTRF kit was used to lyse the cells at 23 °C with shaking for 30 min after the agonist treatment. HTRF conjugates containing phospho-ERK1/2 antibodies were then added to the lysates and incubated for an additional 2 h at 23 °C. The fluorescence signal was recorded using a Tecan M1000 fluorescence plate reader ([…]) at 620 nm for the donor and 665 nm for the acceptor.
On the technique in general: TR-FRET usually uses a lanthanide donor and a delayed reading to cut background.

Experiment [8] concerns ERK1/2 phosphorylation, CHO-B2 cells. Description: ERK1/2 phosphorylation in CHO-B2 cells (HTRF). It counts as cell-based, Chinese hamster ovary cells, human cloned B2 receptor. The following applies: high basal background.
The subject of a further experiment is pro-MMP-1, h-CM cells. Description: pro-MMP-1 release from h-CM cells. It counts as cell-based, human. As to conditions: BK 10 nM to 1 µM, 24 h at 37 °C; n=6. The procedure: as §1
(§2) The release of pro-MMP-1/2/3 in the extracellular medium of h-CM cells exposed to kinin’s, for 24 h at 37 °C [29, 30] was studied next. Thus, h-CM cells isolated from multiple human donor eyes were cultured as described above and then serum-starved for 24 h prior to the addition of any test compound. Cells were incubated with the vehicle or test compound for 24 hours at 37 °C after which the medium was collected and concentrated ten-fold using Centricon concentrators (Millipore Corp., Bellireca, MA). Equal volumes of this concentrate were loaded on 10% SDS-polyacrylamide gels (SDS-PAGE) and the proteins separated and transferred to nitrocellulose membranes. The membranes were then blocked with 5% non-fat dry milk (Bio-Rad Laboratories, Hercules, CA) followed by incubation with antibodies to pro-MMP-1, pro-MMP-2, or pro-MMP-3 for 12 hours at 4 °C with gentle shaking. After washing, these membranes were incubated with appropriate secondary antibodies (HRP-conjugated; dilution 1:3000) for 1 hour at 20 °C. […] For chemiluminescent detection, the membranes were treated with enhanced chemiluminescent reagent (Amersham Pharmacia, Piscataway, NJ) and the signal was quantified using a Bio-Rad Versadoc imaging system (Bio-Rad Laboratories, Hercules, CA).

The subject of another experiment is pro-MMP-2, h-CM cells. Put plainly: pro-MMP-2 release from h-CM cells. It counts as cell-based, human. The following applies: BK 10 nM to 1 µM, 24 h at 37 °C; n=6. As for the experimental part: as §1, §2
In a further experiment the test system is pro-MMPs, h-CM cells. Description: pro-MMP release from h-CM cells (several pro-MMPs stated together). The format is cell-based, human. The following applies: BK 0.1–1 µM at 24 h. The procedure: as §1, §2
Another experiment has as its system B1 subtype. The arrangement: method as in PMID 1313585. The following applies: ref [1]; cited from earlier work.
A further experiment relates to B2 subtype. The arrangement: method as in PMID 1313585. The following applies: ref [1]; cited from earlier work.
The subject of another experiment is human TM cells. The following applies: ref [33]; cited from earlier work.

With H-RPPGFSPFR-OH [BK], the EC50 worked out at 1 nM in the experiment on primary h-TM cells; 0.0263 ± 0.0066 nM in experiment [1] (1 h at 37 °C, enzyme immunoassay, mean ± SEM, 3 to 6 experiments, read-out: Total PGs production in CHO-B2 cells (EC50)); 8.9 ± 0.2 nM in the experiment with h-CM cells [2]; 0.0328 ± 0.00903 nM in the experiment on CHO-B2 cells [4]; 0.0113 nM in the experiment on CHO-B2 cells [5] (first of two values in cell); 0.181 nM in the experiment on CHO-B2 cells [5] (second of two values in cell). For the same substance, the “BK-induced total PGs production/secretion, CHO-B2 cells” value in [1] (n=6) was 913.6 ± 47.6 pg/mL and 913.6 pg/mL. In addition, the “Elevation in extracellular PGs, CHO-B2 cells” value in [1] (relative to basal levels) worked out at 4.9 fold. Moreover, the “PGD2 release in h-CM cells” value in the experiment with h-CM cells [3] is on record as “no PGD2 was detected”. Moreover, the “Effect on NO levels” value with h-CM cells [6] was “failed to have any effect on NO levels; also recorded: failed to do so in h-CM cells”. The “Increase in ERK1/2 phosphorylation (abstract)” value in experiment [7] is recorded as “twofold”. Also, the “ERK1/2 phosphorylation response in CHO-B2 cells” value in experiment [8] is “did not obtain a meaningful response”. Further, in the experiment on pro-MMP-1, h-CM cells, the “pro-MMP-1 release vs basal level” value turned out to be 3.12±0.46 fold. In addition, in the experiment with pro-MMP-2, h-CM cells, the “pro-MMP-2 release vs basal level” value was found to be 1.67±0.25 fold. The “Increase in promatrix metalloproteinases-1–3 release” value in the experiment on pro-MMPs, h-CM cells is given as 1.4–3.1 fold. In addition, in the experiment with B1 subtype, the “Affinity for B1 subtype” value was “low affinity”. Further, in the experiment on B2 subtype, the “Affinity for B2 subtype” value is recorded as “high affinity”. In the experiment on human TM cells, the “Production of PGs in human TM cells” value was “produced various PGs”.
